# From US20250188068A1, “AMIDO CYCLOPROPYL DERIVATIVES AS LPA RECEPTOR INHIBITORS” (CHIESI FARMACEUTICI S.P.A., priority 2022, published 2025)
# Biological target: T1, human recombinant LPA1 expressed in CHO cells (Homo sapiens, UniProt Q92633)
# T1 construct: expressed in transfected cells; host or cells: CHO cells (CHO-hLPA1 cell line)
# Assay: FLIPR calcium mobilization assay, LPA1 antagonism in CHO-hLPA1 cells
# Assay type: cell-based
# Conditions: inhibition of LPA EC80 Ca2+ response, 30 min pre-incubation, range of activity
# Procedure: The effectiveness of compounds of the present invention as LPA1 antagonist can be determined at the human recombinant LPA1 expressed in CHO cells, using a FLIPR assay in 384 well format.
# CHO-hLPA1 cell lines are cultured in a humidified incubator at 5% CO2 in DMEM/F-12 (1:1) MIXTURE with 2 mM Glutamax, supplemented with 10% of Foetal Bovine Serum, 1 mM Sodium Pyruvate, 11 mM Hepes and 1× Penicillin/Streptomycin. CHO hLPA1 cells are seeded into black walled clear-bottom 384-well plates (#781091, Greiner Bio-One GmbH) at a density of 7,500 cells per well in 50 μl culture media and grown overnight in a 37° C. humidified CO2-incubator. Serial dilutions (1:3 or 1:4, 11 points CRC) of compounds are performed in 100% DMSO at 200× the final concentration. The compounds are diluted 1:50 prior to the experiment with Assay Buffer (20 mM HEPES, 145 mM NaCl, 5 mM KCl, 5.5 mM glucose, 1 mM MgCl2 and 2 mM CaCl2), pH 7.4 containing 0.01% Pluronic F-127) to obtain a solution corresponding to […] the final concentration in the assay (4×, 2% DMSO). The final concentration of DMSO in the assay will be 0.5% in each well. Medium is removed by aspiration and cells are then incubated with 30 μl of a loading solution containing 5 μM of the cytoplasmic Ca2+ indicator Cal-520 AM in Assay Buffer containing 2.5 mM probenecid for 30 min at 37° C. incubator (cell loading). The loaded cell plates are transferred into the FLIPR instrument and calcium responses are monitored during the on-line addition protocols. For testing of compounds, after the cell loading, 10 μl/well of 4× antagonists' solution was added onto the cells. After 30 min pre-incubation (at 37° C.), 10 μl/well of 5× concentrated LPA EC80 was added and Ca2+ mobilization responses was followed during the on-line addition protocol. Intracellular peak fluorescence values subtracted by baseline fluorescence are exported and analysed to determine IC50 values, respectively. The calcium response is expressed as percentage of the maximal inhibition of the EC80 agonist response.
# The raw data obtained in unstimulated controls (DMSO, no LPA) are set as “100% inhibition”, while the raw data obtained in negative controls, i.e. in the absence of compounds and stimulating with LPA EC80, are set as “0% inhibition”.
# The raw data (peak height expressed as relative fluorescence units) are normalized and transformed into “percent of inhibition”. Curve fitting and pIC50 (−Log IC50) estimations are carried out using a four-parameter logistic model using XLfit Software.
# T1 sequence (Q92633 whole entry): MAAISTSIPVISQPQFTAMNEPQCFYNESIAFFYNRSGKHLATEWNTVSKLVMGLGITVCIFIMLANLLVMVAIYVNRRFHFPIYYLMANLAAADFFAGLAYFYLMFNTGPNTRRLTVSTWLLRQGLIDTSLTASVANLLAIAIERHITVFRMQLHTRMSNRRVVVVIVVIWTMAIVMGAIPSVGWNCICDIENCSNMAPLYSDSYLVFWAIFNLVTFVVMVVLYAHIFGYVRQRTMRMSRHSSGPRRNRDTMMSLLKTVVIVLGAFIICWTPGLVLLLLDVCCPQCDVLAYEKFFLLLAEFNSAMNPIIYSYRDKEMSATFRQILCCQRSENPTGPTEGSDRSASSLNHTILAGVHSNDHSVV
row,SMILES,IC50
1,"Cc1noc(-c2ccc(NC(=O)C3C(c4nnn[nH]4)C3(F)F)cc2)c1NC(=O)O[C@H](C)c1ccccc1Cl (mixture of isomers) [Compound 13, (R)-1-(2-chlorophenyl)ethyl (5-(4-(2,2-difluoro-3-(1H-tetrazol-5-yl)cyclopropane-1-carboxamido)phenyl)-3-methylisoxazol-4-yl)carbamate, mix of Trans diastereomers]",< 50 nM
2,"Cc1nc(-c2onc(C)c2NC(=O)O[C@H](C)c2ccccc2Cl)ccc1NC(=O)C1C(c2nnn[nH]2)C1(F)F (mixture of isomers) [Compound 14, (R)-1-(2-chlorophenyl)ethyl (5-(5-(2,2-difluoro-3-(1H-tetrazol-5-yl)cyclopropane-1-carboxamido)-6-methylpyridin-2-y1)-3-methylisoxazol-4-yl)carbamate, mix of Trans diastereomers]",< 50 nM
3,"Cc1nc(-c2onc(C)c2NC(=O)O[C@H](C)c2ccccc2Cl)ccc1CNC(=O)C1C(C(=O)O)C1(F)F (mixture of isomers) [Compound 16, 3-(((6-(4-((((R)-1-(2-chlorophenyl)ethoxy)carbonyl)amino)-3-methylisoxazol-5-yl)-2-methylpyridin-3-yl)methyl)carbamoyl)-2,2-difluorocyclopropane-1-carboxylic acid, mix of Cis diastereomers]",50 to 100 nM
4,"Cc1nc(-c2onc(C)c2NC(=O)O[C@H](C)c2ccccc2Cl)ccc1CNC(=O)C1C(C(=O)O)C1(F)F (mixture of isomers) [Compound 17, 3-(((6-(4-((((R)-1-(2-chlorophenyl)ethoxy)carbonyl)amino)-3-methylisoxazol-5-yl)-2-methylpyridin-3-yl)methyl)carbamoyl)-2,2-difluorocyclopropane-1-carboxylic acid, mix of Trans diastereomers]",< 50 nM
5,"Cc1nc(-c2onc(C)c2CNc2nccc(C3CCCCC3)n2)ccc1NC(=O)[C@@H]1[C@@H](C(=O)O)C1(F)F (racemic) [Compound 18, 3-((6-(4-(((4-cyclohexylpyrimidin-2-yl)amino)methyl)-3-methylisoxazol-5-yl)-2-methylpyridin-3-yl)carbamoyl)-2,2-difluorocyclopropane-1-carboxylic acid, mix of Trans diastereomers]",< 50 nM
6,"Cc1noc(-c2ccc(NC(=O)[C@@H]3[C@@H](C(=O)O)C3(F)F)cc2)c1COC(=O)N(C)C1CCCC1 (racemic) [Compound 36, 3-((4-(4-(((cyclopentyl(methyl)carbamoyl)oxy)methyl)-3-methylisoxazol-5-yl)phenyl)carbamoyl)-2,2-difluorocyclopropane-1-carboxylic acid, mix of Trans diastereomers]",100 to 200 nM
7,"Cc1noc(-c2ccc(NC(=O)C3C(C(=O)O)C3(F)F)cn2)c1NC(=O)O[C@H](C)c1ccccc1Cl (single isomer, unassigned) [Compound 5]",< 50 nM
8,"Cc1noc(-c2ccc(N(C)C(=O)C3C(C(=O)O)C3(F)F)cc2)c1NC(=O)O[C@H](C)c1ccccc1Cl (single isomer, unassigned) [Compound 8]",100 to 200 nM
9,"Cc1nc(-c2nnn(C)c2NC(=O)O[C@H](C)c2ccccc2Cl)ccc1NC(=O)C1C(C(=O)O)C1(F)F (single isomer, unassigned) [Compound 32]",< 50 nM
10,"Cc1nc(-c2snc(C)c2NC(=O)O[C@H](C)c2ccccc2Cl)ccc1NC(=O)C1C(C(=O)O)C1(F)F (single isomer, unassigned; diastereomer 1) [Compound 31]",< 50 nM
11,"Cc1noc(-c2ccc(N(C)C(=O)C3C(C(=O)O)C3(F)F)cc2)c1NC(=O)O[C@H](C)c1ccccc1Cl (single isomer, unassigned; diastereomer 2) [Compound 9]",50 to 100 nM
12,"Cc1nc(-c2onc(C)c2Nc2cncc(OC(C)C)n2)ccc1NC(=O)C1C(C(=O)O)C1(F)F (single isomer, unassigned; diastereomer 2) [Compound 11]",< 50 nM
13,"Cc1nc(-c2sccc2NC(=O)O[C@H](C)c2ccccc2Cl)ccc1NC(=O)C1C(C(=O)O)C1(F)F (single isomer, unassigned; diastereomer 2) [Compound 30]",100 to 200 nM
14,"Cc1nc(-c2onc(C)c2CNc2nccc(C3CCCCC3)n2)ccc1NC(=O)C1C(C(=O)O)C1(F)F (single isomer, unassigned; enantiomer 1) [Compound 19, Single Enantiomer 1 of Trans-3-((6-(4-(((4-cyclohexylpyrimidin-2-yl)amino)methyl)-3-methylisoxazol-5-yl)-2-methylpyridin-3-yl)carbamoyl)-2,2-difluorocyclopropane-1-carboxylic acid]",< 50 nM
15,"Cc1nc(-c2onc(C)c2NC(=O)O[C@H](C)c2ccccc2Cl)ccc1NC(=O)[C@@H]1[C@@H](C(=O)O)C1(F)F [Compound 1, (1S,3S)-3-((6-(4-((((R)-1-(2-chlorophenyl)ethoxy)carbonyl)amino)-3-methylisoxazol-5-yl)-2-methylpyridin-3-yl)carbamoyl)-2,2-difluorocyclopropane-1-carboxylic acid]",< 50 nM
16,"Cc1nc(-c2onc(C)c2NC(=O)O[C@H](C)c2ccccc2Cl)ccc1NC(=O)[C@H]1[C@H](C(=O)O)C1(F)F [Compound 2, (1R,3R)-3-((6-(4-((((R)-1-(2-chlorophenyl)ethoxy)carbonyl)amino)-3-methylisoxazol-5-yl)-2-methylpyridin-3-yl)carbamoyl)-2,2-difluorocyclopropane-1-carboxylic acid]",< 50 nM
17,"Cc1nc(-c2onc(C)c2NC(=O)O[C@H](C)c2ccccc2Cl)ccc1NC(=O)C1C(C(=O)O)C1(F)F (stereo partly drawn) [Compound 4, 3-((6-(4-((((R)-1-(2-chlorophenyl)ethoxy)carbonyl)amino)-3-methylisoxazol-5-yl)-2-methylpyridin-3-yl)carbamoyl)-2,2-difluorocyclopropane-1-carboxylic acid]",< 50 nM
18,"Cc1nc(-c2onc(C)c2CNc2nccc(-c3ccsc3)n2)ccc1NC(=O)[C@@H]1[C@@H](C(=O)O)C1(F)F [Compound 21, (1S,3S)-2,2-difluoro-3-((2-methyl-6-(3-methyl-4-(((4-(thiophen-3-yl)pyrimidin-2-yl)amino)methyl)isoxazol-5-yl)pyridin-3-yl)carbamoyl)cyclopropane-1-carboxylic acid]",< 50 nM
19,"Cc1nc(-c2onc(C)c2CNc2nccc(-c3ccco3)n2)ccc1NC(=O)[C@@H]1[C@@H](C(=O)O)C1(F)F [Compound 22, (1S,3S)-2,2-difluoro-3-((6-(4-(((4-(furan-2-yl)pyrimidin-2-yl)amino)methyl)-3-methylisoxazol-5-yl)-2-methylpyridin-3-yl)carbamoyl)cyclopropane-1-carboxylic acid]",100 to 200 nM
20,"Cc1nc(-c2onc(C)c2CNc2nccc(-c3cnccn3)n2)ccc1NC(=O)[C@@H]1[C@@H](C(=O)O)C1(F)F [Compound 23, (1S,3S)-2,2-difluoro-3-((2-methyl-6-(3-methyl-4-(((4-(pyrazin-2-yl)pyrimidin-2-yl)amino)methyl)isoxazol-5-yl)pyridin-3-yl)carbamoyl)cyclopropane-1-carboxylic acid]",< 50 nM
21,"Cc1nc(-c2onc(C)c2CNc2nccc(-c3cccs3)n2)ccc1NC(=O)[C@@H]1[C@@H](C(=O)O)C1(F)F [Compound 24, (1S,3S)-2,2-difluoro-3-((2-methyl-6-(3-methyl-4-(((4-(thiophen-2-yl)pyrimidin-2-yl)amino)methyl)isoxazol-5-yl)pyridin-3-yl)carbamoyl)cyclopropane-1-carboxylic acid]",< 50 nM
22,"Cc1nc(-c2onc(C)c2CNc2nccc(-c3cccnc3)n2)ccc1NC(=O)[C@@H]1[C@@H](C(=O)O)C1(F)F [Compound 25, (1S,3S)-2,2-difluoro-3-((2-methyl-6-(3-methyl-4-(((4-(pyridin-3-yl)pyrimidin-2-yl)amino)methyl)isoxazol-5-yl)pyridin-3-yl)carbamoyl)cyclopropane-1-carboxylic acid]",< 50 nM
23,"C[C@@H](OC(=O)Nc1c(-c2ccc(NC(=O)[C@@H]3[C@@H](C(=O)O)C3(F)F)cc2)nnn1C)c1ccccc1Cl [Compound 35, (1S,3S)-3-((4-(5-((((R)-1-(2-chlorophenyl)ethoxy)carbonyl)amino)-1-methyl-1H-1,2,3-triazol-4-yl)phenyl)carbamoyl)-2,2-difluorocyclopropane-1-carboxylic acid]",< 50 nM
